# Reference: patent US9617602B2, “Methods and compositions for determining resistance to androgen receptor therapy” (Aragon Pharmaceuticals, Inc., priority 2012, dated 2017)
# How the values were obtained:
# Assay type in all cases: cell-based, human
# [1] = test system: LNCaP cells; assay: Proliferation assay (CellTiter-Glo), agonist and antagonist mode; settings: for viability at 0.0001 µM: Homo sapiens, 168 h, read-out: Antagonist Proliferation Assay (% Viability); for Agonist Proliferation Assay (% Viability): 7 days
# [2] = test system: LNCaP/AR(cs) cells; assay: as above; settings: for viability at 0.0001 µM: Homo sapiens, LNCaP/AR, 168 h, read-out: Antagonist Proliferation Assay (% Viability); for Agonist Proliferation Assay (% Viability): LNCaP/AR(cs), 7 days
# [3] = test system: Class 1 ARN-509- and MDV3100-resistant cell lines; assay: as above; settings: for Agonist Proliferation Assay (% Viability): Class 1, 7 days; for viability at 0.0001 µM: Homo sapiens, 168 h, read-out: Antagonist Proliferation Assay (% Viability)
# [4] = test system: Class 2 MDV3100- and ARN-509-resistant cell lines; assay: as above; settings: for Agonist Proliferation Assay (% Viability): Class 2, 7 days; for viability at 0.0001 µM: Homo sapiens, 168 h, read-out: Antagonist Proliferation Assay (% Viability)
# [5] = test system: LNCaP cells; assay: Transcriptional reporter assay (probasin-luciferase)
# Procedure: (§1) With the exception of the LNCaP/AR(cs)-Luc cells that contain an integrated androgen responsive reporter, cells were transiently transfected using Lipofectin® (Life Technologies) according to the manufacturer's protocol. […] Following transfection, the cells were incubated for 4 hours.
# (§2) Following 48 hour incubation the medium was removed and the cells were lysed in 40 μL of lysis buffer (25 mM Tris Phosphate, 2 mM CDTA, 10% Glycerol, 0.5% Triton X-100, 2 mM DTT).
# [6] = test system: LNCaP/AR(cs) cells; assay: as above
# Procedure: as §1, §2
# [7] = test system: Class 1 resistant cell lines; assay: as above; settings: Class 1
# Procedure: as §1, §2
# [8] = test system: Class 2 resistant cell lines; assay: as above; settings: Class 2
# Procedure: as §1, §2
# [9] = test system: LNCaP cells; assay: Endogenous gene transcriptional assay (real-time PCR of androgen responsive genes); settings: 1 nM R1881 or 30 μM compound, vehicle=1.00
# Procedure: (§3) Total RNA was isolated using the Aurum™ total RNA isolation kit (BIO-RAD, Hercules, Calif.). RNA (1 μg) was reverse transcribed using the iScript cDNA synthesis kit (BIO-RAD, Hercules, Calif.) to produce cDNA. Real-time PCR was performed using the Applied Biosystems 7900HT instrument and SYBR Green PCR Master Mix (Applied Biosystems, Foster City, Calif.). PCR reactions were performed in 6 μL according to the manufacturer's protocol and a thermocycle protocol of 95° C. for 10 minutes followed by 40 cycles of 95° C. for 15 seconds and 58° C. for 1 minute. Androgen responsive gene (PSA, SLUG, TMPRSS2, STEAP4, FKBP5, ORM1, NOV, FASN, NKX3.1, AMIGO2, BDNF, CAMK2N1, HPGD, NCAPD3, PLD1) expression was normalized to GAPDH expression and expressed relative to vehicle treatment of the parental cell line.
# (§4) Gene expression was normalized to GAPDH as described above.
# [10] = test system: LNCaP/AR(cs) cells; assay: as above
# Procedure: as §3, §4
# [11] = test system: LNCaP ARN-509r1 cells; assay: as above; settings: 1 nM R1881 or 30 μM compound, vehicle=1.00
# Procedure: as §3, §4
# [12] = test system: LNCaP ARN-509r2 cells; assay: as above; settings: 1 nM R1881 or 30 μM compound, vehicle=1.00
# Procedure: as §3, §4
# [13] = test system: LNCaP/AR-Luc cells; assay: as above; settings: 1 nM R1881 or 30 μM compound, vehicle=1.00
# Procedure: as §3, §4
# [14] = test system: AR in LNCaP/AR(cs) cells; assay: AR chromatin immunoprecipitation (ChIP) of AR target genes; settings: 1 nM R1881, 4 hours
# Text: The samples were amplified on the ABI 7900HT instrument.
# [15] = [Antagonists] = 50 μM in presence of R1881
# [16] = Table 4A, 1 nM R1881 or 30 μM compound, vehicle=1.00
# [17] = Tables 9A/9B, 1 nM R1881, vehicle=1.00
smiles,measurement,setting,value
"CC(O)(CS(=O)(=O)c1ccc(F)cc1)C(=O)Nc1ccc(C#N)c(C(F)(F)F)c1 (stereo not shown) [Bicalutamide, bicalutamide]",viability at 0.0001 µM,[1],< 30%
same,Agonist Proliferation Assay (% Viability),[1]; [Antagonists] = 10 μM,+ (‘+’ = <30)
same,viability at 0.0001 µM,[2],< 30%
same,Agonist Proliferation Assay (% Viability),[2]; [Antagonists] = 10 μM,+ (‘+’ = <30)
same,Agonist Proliferation Assay (% Viability),[3]; [Antagonists] = 10 μM,++ (‘++’ = >30)
same,viability at 0.0001 µM,[3],> 30%
same,Agonist Proliferation Assay (% Viability),[4]; [Antagonists] = 10 μM,+ (‘+’ = <30)
same,viability at 0.0001 µM,[4],> 30%
same,Agonist Transcriptional Reporter Assay (% Max Activity),[5]; [Antagonists] = 50 μM,+ (‘+’ = <5)
same,Antagonist Transcriptional Reporter Assay (% Max Activity),[5]; [15],+ (‘+’ = <5)
same,Agonist Transcriptional Reporter Assay (% Max Activity),[6]; [Antagonists] = 50 μM,+ (‘+’ = <5)
same,Antagonist Transcriptional Reporter Assay (% Max Activity),[6]; [15],+ (‘+’ = <5)
same,Agonist Transcriptional Reporter Assay (% Max Activity),[7]; [Antagonists] = 50 μM,++ (‘++’ = >5)
same,Antagonist Transcriptional Reporter Assay (% Max Activity),[7]; [15],++ (‘++’ = >5)
same,Agonist Transcriptional Reporter Assay (% Max Activity),[8]; [Antagonists] = 50 μM,+ (‘+’ = <5)
same,Antagonist Transcriptional Reporter Assay (% Max Activity),[8]; [15],+ (‘+’ = <5)
"C[C@]1(O)CC[C@H]2[C@@H]3CCC4=CC(=O)CCC4=C3C=C[C@@]21C [R1881, methyltrienolone]",viability at 0.0001 µM,[1],100%
same,Agonist Proliferation Assay (% Viability),[1]; [R1881] = 0.1 nM,100.0%
same,viability at 0.0001 µM,[2],100%
same,Agonist Proliferation Assay (% Viability),[2]; [R1881] = 0.1 nM,100.0%
same,Agonist Proliferation Assay (% Viability),[3]; [R1881] = 0.1 nM,100.0%
same,viability at 0.0001 µM,[3],100%
same,Effect of R1881 on proliferation of Class 1 cells,[3]; high concentrations,inhibits proliferation
same,Agonist Proliferation Assay (% Viability),[4]; [R1881] = 0.1 nM,100.0%
same,viability at 0.0001 µM,[4],100%
same,Agonist Transcriptional Reporter Assay (% Max Activity),[5]; [R1881] = 10 nM,>90%
same,Antagonist Transcriptional Reporter Assay (% Max Activity),[5]; [R1881] = 10 nM,>90%
same,Agonist Transcriptional Reporter Assay (% Max Activity),[6]; [R1881] = 10 nM,>90%
same,Antagonist Transcriptional Reporter Assay (% Max Activity),[6]; [R1881] = 10 nM,>90%
same,Agonist Transcriptional Reporter Assay (% Max Activity),[7]; [R1881] = 10 nM,>90%
same,Antagonist Transcriptional Reporter Assay (% Max Activity),[7]; [R1881] = 10 nM,>90%
same,Agonist Transcriptional Reporter Assay (% Max Activity),[8]; [R1881] = 10 nM,>90%
same,Antagonist Transcriptional Reporter Assay (% Max Activity),[8]; [R1881] = 10 nM,>90%
same,AMIGO2 gene expression,[9],0.68
same,BDNF gene expression,[9],0.40
same,CAM2KN1 gene expression,[9],0.13
same,FASN gene expression,[9],5.58
same,FKBP5 gene expression,[9],54.95
same,HPGD gene expression,[9],100.43
same,NCAPD3 gene expression,[9],104.69
same,NKX3.1 gene expression,[9],30.06
same,NOV gene expression,[9],0.15
same,ORM1 gene expression,[9],873.10
same,PLD1 gene expression,[9],0.02
same,PSA gene expression,[9],47.84
same,SLUG gene expression,[9],129.79
same,STEAP4 gene expression,[9],639.15
same,TMPRSS2 gene expression,[9],22.16
same,AMIGO2 gene expression,[10]; [16],0.54
same,BDNF gene expression,[10]; [16],0.48
same,CAM2KN1 gene expression,[10]; [16],0.05
same,FASN gene expression,[10]; [16],7.11
same,FKBP5 gene expression,[10]; [16],97.01
same,HPGD gene expression,[10]; [16],183.55
same,NCAPD3 gene expression,[10]; [16],93.05
same,NKX3.1 gene expression,[10]; [16],8.82
same,NOV gene expression,[10]; [16],0.04
same,ORM1 gene expression,[10]; [16],3444.31
same,PLD1 gene expression,[10]; [16],0.02
same,PSA gene expression,[10]; [16],19.16
same,SLUG gene expression,[10]; [16],89.88
same,STEAP4 gene expression,[10]; [16],1314.23
same,TMPRSS2 gene expression,[10]; [16],17.51
same,AMIGO2 gene expression,[10]; [17],0.98
same,BDNF gene expression,[10]; [17],0.86
same,CAM2KN1 gene expression,[10]; [17],0.04
same,FASN gene expression,[10]; [17],4.12
same,FKBP5 gene expression,[10]; [17],100.51
same,HPGD gene expression,[10]; [17],324.60
same,NCAPD3 gene expression,[10]; [17],95.54
same,NKX3.1 gene expression,[10]; [17],12.72
same,NOV gene expression,[10]; [17],0.05
same,ORM1 gene expression,[10]; [17],6987.01
same,PLD1 gene expression,[10]; [17],0.03
same,PSA gene expression,[10]; [17],22.14
same,SLUG gene expression,[10]; [17],91.84
same,STEAP4 gene expression,[10]; [17],1498.46
same,TMPRSS2 gene expression,[10]; [17],35.42
same,AMIGO2 gene expression,[11],0.21
same,BDNF gene expression,[11],0.31
same,CAM2KN1 gene expression,[11],0.01
same,FASN gene expression,[11],3.12
same,FKBP5 gene expression,[11],53.45
same,HPGD gene expression,[11],61.39
same,NCAPD3 gene expression,[11],90.51
same,NKX3.1 gene expression,[11],8.11
same,NOV gene expression,[11],0.03
same,ORM1 gene expression,[11],1296.13
same,PLD1 gene expression,[11],0.03
same,PSA gene expression,[11],85.63
same,SLUG gene expression,[11],164.28
same,STEAP4 gene expression,[11],1184.45
same,TMPRSS2 gene expression,[11],37.27
same,AMIGO2 gene expression,[12],0.55
same,BDNF gene expression,[12],0.47
same,CAM2KN1 gene expression,[12],0.02
same,FASN gene expression,[12],4.82
same,FKBP5 gene expression,[12],48.50
same,HPGD gene expression,[12],59.30
same,NCAPD3 gene expression,[12],54.95
same,NKX3.1 gene expression,[12],10.20
same,NOV gene expression,[12],0.07
same,ORM1 gene expression,[12],625.99
same,PLD1 gene expression,[12],0.02
same,PSA gene expression,[12],7.89
same,SLUG gene expression,[12],77.17
same,STEAP4 gene expression,[12],377.41
same,TMPRSS2 gene expression,[12],15.14
same,AMIGO2 gene expression,[13],0.54
same,BDNF gene expression,[13],0.18
same,CAM2KN1 gene expression,[13],0.11
same,FASN gene expression,[13],3.48
same,FKBP5 gene expression,[13],20.82
same,HPGD gene expression,[13],2.41
same,NCAPD3 gene expression,[13],17.27
same,NKX3.1 gene expression,[13],11.24
same,NOV gene expression,[13],0.47
same,ORM1 gene expression,[13],7.89
same,PLD1 gene expression,[13],0.15
same,PSA gene expression,[13],2.10
same,SLUG gene expression,[13],48.84
same,STEAP4 gene expression,[13],20.25
same,TMPRSS2 gene expression,[13],3.46
same,"AR DNA binding (ChIP), LNCaP/AR(cs) cells",[14],promoted AR DNA
